The values that follow come from ChEMBL document CHEMBL4196065, “Design and synthesis of new hybrids from 2-cyano-3,12-dioxooleana- 9-dien-28-oic acid and O2-(2,4-dinitrophenyl) diazeniumdiolate for intervention of drug-resistant lung cancer” (Eur J Med Chem, 2018).

Series [1] deals with A549/TR. Put plainly: Induction of ROS generation in human A549/TR cells after 24 hrs by DCFH-DA dye-based flow cytometric analysis. It is filed as functional, cell-based.
The test system of series [2] is A549/TR. Put plainly: Antiproliferative activity against human A549/TR cells at 1 uM after 72 hrs by MTT assay. It is filed as functional.
The subject of series [3] is A549/TR. Put plainly: Antiproliferative activity against human A549/TR cells after 72 hrs by MTT assay. Type of series: functional, cell-based. For orientation: Tetrazolium assays rely on reduction of a dye to a coloured formazan, in cell work by metabolically active cells.
Series [4] can be described thus: Resistant factor, ratio of IC50 for human A549/TR cells to IC50 for human A549 cells. It is filed as functional.
Series [5] in a line: Potency index, ratio of taxol IC50 to compound IC50 for antiproliferative activity against human A549/TR cells. It is filed as functional.
For series [6], the system named is MRC5. Put plainly: Antiproliferative activity against human MRC5 cells after 72 hrs by MTT assay. Type of series: cell-based. Conditions: MRC5, 72 h.
Series [7] deals with A549/TR. Description: Induction of nitric oxide production in human A549/TR cells at 50 uM after 6 hrs by Griess assay. Type of series: functional, cell-based. (In general: Griess reagent forms a coloured azo dye with nitrite.)
Series [8] concerns MRC5. Put plainly: Induction of nitric oxide production in human MRC5 cells at 50 uM after 6 hrs by Griess assay. It is filed as cell-based. Conditions: mrc5, 6 h.
Series [9] has as its system A549/TR. Description: Growth inhibition of human A549/TR cells at 1 uM after 72 hrs in presence of GSTpi inhibitor etacrynic acid by MTT assay. Type of series: functional.
In series [10] the test system is A549/TR. Put plainly: Growth inhibition of human A549/TR cells at 1 uM after 72 hrs in presence of ROS scavenger NAC by MTT assay. Type of series: functional.
In series [11] the test system is A549/TR. Put plainly: Growth inhibition of human A549/TR cells at 1 uM after 72 hrs in presence of NO scavenger hemoglobin by MTT assay. It is filed as functional.
For series [12], the system named is A549/TR. Description: Downregulation of Lon expression in human A549/TR cells after 24 hrs by Western blot analysis. It is filed as functional, cell-based. Background: A western blot detects proteins with antibodies after separation by electrophoresis.
Series [13] deals with A549/TR. Description: Induction of apoptosis in human A549/TR cells after 24 hrs by Annexin-V-FITC/propidium iodide staining-based flow cytometric analysis. It is filed as functional, cell-based.
Series [14] has as its system A549/TR. Description: Induction of apoptosis in human A549/TR cells assessed as viable cells at 1.2 uM after 24 hrs by Annexin-V-FITC/propidium iodide staining-based flow cytometric analysis (reference value: 95.1%). Conditions: read-out: Activity. It is filed as functional.
Series [15] relates to A549/TR. Description: Induction of apoptosis in human A549/TR cells assessed as early apoptotic cells at 1.2 uM after 24 hrs by Annexin-V-FITC/propidium iodide staining-based flow cytometric analysis (reference value: 3.42%). It is filed as functional.
The subject of series [16] is A549/TR. Description: Induction of apoptosis in human A549/TR cells assessed as late apoptotic cells at 1.2 uM after 24 hrs by Annexin-V-FITC/propidium iodide staining-based flow cytometric analysis (reference value: 1.24%). It is filed as functional.
Series [17] has as its system A549/TR. Description: Induction of apoptosis in human A549/TR cells assessed as necrotic cells at 1.2 uM after 24 hrs by Annexin-V-FITC/propidium iodide staining-based flow cytometric analysis (reference value: 0.22%). It is filed as functional.
Series [18] deals with A549/TR. Description: Induction of apoptosis in human A549/TR cells assessed as viable cells at 2.4 uM after 24 hrs by Annexin-V-FITC/propidium iodide staining-based flow cytometric analysis (reference value: 95.1%). Type of series: functional. Conditions: read-out: Activity.
Series [19] relates to A549/TR. Description: Induction of apoptosis in human A549/TR cells assessed as early apoptotic cells at 2.4 uM after 24 hrs by Annexin-V-FITC/propidium iodide staining-based flow cytometric analysis (reference value: 3.42%). Type of series: functional.
Series [20] has as its system A549/TR. Description: Induction of apoptosis in human A549/TR cells assessed as late apoptotic cells at 2.4 uM after 24 hrs by Annexin-V-FITC/propidium iodide staining-based flow cytometric analysis (reference value: 1.24%). It is filed as functional.
The subject of series [21] is A549/TR. Put plainly: Induction of apoptosis in human A549/TR cells assessed as necrotic cells at 2.4 uM after 24 hrs by Annexin-V-FITC/propidium iodide staining-based flow cytometric analysis (reference value: 0.22%). Type of series: functional.
Series [22] deals with A549/TR. Description: Induction of apoptosis in human A549/TR cells assessed as viable cells at 4.8 uM after 24 hrs by Annexin-V-FITC/propidium iodide staining-based flow cytometric analysis (reference value: 95.1%). It is filed as functional. The note with it: read-out: Activity.
In series [23] the test system is A549/TR. Description: Induction of apoptosis in human A549/TR cells assessed as early apoptotic cells at 4.8 uM after 24 hrs by Annexin-V-FITC/propidium iodide staining-based flow cytometric analysis (reference value: 3.42%). Type of series: functional.
The subject of series [24] is A549/TR. Put plainly: Induction of apoptosis in human A549/TR cells assessed as late apoptotic cells at 4.8 uM after 24 hrs by Annexin-V-FITC/propidium iodide staining-based flow cytometric analysis (reference value: 1.24%). Type of series: functional.
Series [25] concerns A549/TR. Put plainly: Induction of apoptosis in human A549/TR cells assessed as necrotic cells at 4.8 uM after 24 hrs by Annexin-V-FITC/propidium iodide staining-based flow cytometric analysis (reference value: 0.22%). It is filed as functional.
In series [26] the test system is A549/TR. Put plainly: Cell cycle arrest in human A549/TR cells assessed as accumulation at G0/G1 phase at 1.2 uM after 24 hrs by propidium iodide/RNase-staining based flow cytometric analysis (reference value: 62.5%). Type of series: functional.
Series [27] deals with A549/TR. Put plainly: Cell cycle arrest in human A549/TR cells assessed as accumulation at G2/M phase at 1.2 uM after 24 hrs by propidium iodide/RNase-staining based flow cytometric analysis (reference value: 24.7%). Type of series: functional.
Series [28] deals with A549/TR. Description: Cell cycle arrest in human A549/TR cells assessed as accumulation at G0/G1 phase at 2.4 uM after 24 hrs by propidium iodide/RNase-staining based flow cytometric analysis (reference value: 62.5%). Type of series: functional.
The subject of series [29] is A549/TR. Description: Cell cycle arrest in human A549/TR cells assessed as accumulation at G2/M phase at 2.4 uM after 24 hrs by propidium iodide/RNase-staining based flow cytometric analysis (reference value: 24.7%). Type of series: functional.
The test system of series [30] is A549/TR. Put plainly: Cell cycle arrest in human A549/TR cells assessed as accumulation at G0/G1 phase at 4.8 uM after 24 hrs by propidium iodide/RNase-staining based flow cytometric analysis (reference value: 62.5%). Type of series: functional.
Series [31] has as its system A549/TR. Description: Cell cycle arrest in human A549/TR cells assessed as accumulation at G2/M phase at 4.8 uM after 24 hrs by propidium iodide/RNase-staining based flow cytometric analysis (reference value: 24.7%). It is filed as functional.
Series [32] concerns A549/TR. Description: Cell cycle arrest in human A549/TR cells after 24 hrs by propidium iodide/RNase-staining based flow cytometric analysis. It is filed as functional.
The test system of another series is A549. Put plainly: cells. The note with it: Homo sapiens, A549, 72 h.
Series [33] relates to A549/TR. Put plainly: Induction of ROS generation in human A549/TR cells at 2.4 to 9.6 uM after 24 hrs by DCFH-DA dye-based flow cytometric analysis. Type of series: functional, cell-based.
The subject of series [34] is A549/TR. Description: Downregulation of Lon expression in human A549/TR cells at 4.8 uM after 24 hrs by Western blot analysis. It is filed as functional, cell-based.

Each structure is given as a SMILES string. Active and inactive are the calls of the source. The calls are words filed in the database; no cut-off is given here.

A word on the IC50: it is the concentration needed to halve the response being measured. A high value points to weaker potency in that assay. Regarding `CN(CCO)/[N+]([O-])=N/Oc1cc(N2CCN(C(=O)[C@]34CCC(C)(C)C[C@H]3[C@H]3C(=O)C=C5[C@@]6(C)C=C(C#N)C(=O)C(C)(C)[C@@H]6CC[C@@]5(C)[C@]3(C)CC4)CC2)c([N+](=O)[O-])cc1[N+](=O)[O-]`, the Activity result was “Dose-dependent effect” with A549/TR [1]; over 50% with A549/TR [2]; “Toxic” in the series with MRC5 [8]; “Dose-dependent effect” in the series on A549/TR [12]; “Dose-dependent effect” in the series on A549/TR [13]; 5.11% in the series on A549/TR [15]. Further, the Activity is 3.09% in the series with A549/TR [16]; 0.27% with A549/TR [17]; 12.8% in the series on A549/TR [19]; 14.4% with A549/TR [20]; 2.78% in the series on A549/TR [21]; 15.8% with A549/TR [23]. Further, the Activity is given as 21.4% in the series with A549/TR [24]; 3.15% with A549/TR [25]; 61.3% with A549/TR [26]; 28.3% in the series with A549/TR [27]; 47.9% with A549/TR [28]; 38.9% in the series with A549/TR [29]. For the same compound, the Activity in the series on A549/TR [30] was 39.4%; in the series with A549/TR [31], 48.3%; in the series on A549/TR [32], “Dose-dependent effect”. Besides, the IC50 with A549/TR [3] was determined as 0.349 µM; with MRC5 [6], 1.6 µM; in the series with A549, 1.07 µM. Further, the figures for the “Ratio IC50” value in series [4] and in [5] were 0.3 and 10, respectively. The result in the series on A549/TR [7] was Active. In addition, the “growth inhibition (GI)” value in the series with A549/TR [9], in the series on A549/TR [10] and with A549/TR [11] was “inactive” in each case. For the same compound, in the series on A549/TR [14], the viability at 1.2 µM was 91.6%. Moreover, in the series on A549/TR [18], the viability at 2.4 µM is 70%. Also, the viability at 4.8 µM in the series with A549/TR [22] was determined as 59.7%.
As to `COC(=O)[C@]12CCC(C)(C)C[C@H]1[C@H]1C(=O)C=C3[C@@]4(C)C=C(C#N)C(=O)C(C)(C)[C@@H]4CC[C@@]3(C)[C@]1(C)CC2` [BARDOXOLONE METHYL], the half-inhibitory concentration (IC50) in the series on A549/TR [3] was found to be 1.7 µM; in the series on A549 it was 2.07 µM. For the same compound, the “Ratio IC50” value in series [4] turned out to be 0.8. Moreover, in the series on A549/TR [7], the result was inactive. Moreover, the Activity entry in the series on MRC5 [8] is listed as “Non-Toxic”; with A549/TR [15] it was 4.06%; with A549/TR [16] it was 0.8%; in the series with A549/TR [17] it was 0.14%; with A549/TR [19], 6.14%; in the series with A549/TR [20], 1.95%. Also, the Activity is on record as 0.13% in the series on A549/TR [21]; 7.36% with A549/TR [23]; 3.03% in the series on A549/TR [24]; 0.17% in the series with A549/TR [25]; 62.3% in the series with A549/TR [26]; 24.9% in the series with A549/TR [27]. Besides, the Activity is recorded as 54.7% in the series on A549/TR [28], 32.1% in the series with A549/TR [29], 47.4% in the series with A549/TR [30] and 39.4% with A549/TR [31]. The outcome with A549/TR [33] and with A549/TR [34] was Active. Further, the viability at 1.2 µM with A549/TR [14] stood at 94.9%. Also, the viability at 2.4 µM in the series on A549/TR [18] was determined as 91.8%. Also, in the series with A549/TR [22], the viability at 4.8 µM came out at 83.4%.
As for `CN(CCO)/[N+]([O-])=N/Oc1cc(NCCOC(=O)[C@]23CCC(C)(C)C[C@H]2[C@H]2C(=O)C=C4[C@@]5(C)C=C(C#N)C(=O)C(C)(C)[C@@H]5CC[C@@]4(C)[C@]2(C)CC3)c([N+](=O)[O-])cc1[N+](=O)[O-]`, in the series on A549/TR [2], the Activity is over 50%. For the same compound, the IC50 worked out at 0.82 µM in the series on A549/TR [3] and 1.44 µM in the series on A549. In [4], the “Ratio IC50” value stood at 0.6.
Taken in the same sequence, the figures for `C[C@H](N)C(=O)OCCN(C)/[N+]([O-])=N/Oc1cc(NCCOC(=O)[C@]23CCC(C)(C)C[C@H]2[C@H]2C(=O)C=C4[C@@]5(C)C=C(C#N)C(=O)C(C)(C)[C@@H]5CC[C@@]4(C)[C@]2(C)CC3)c([N+](=O)[O-])cc1[N+](=O)[O-]` were over 50%, 1.09 µM, 1.44 µM and 0.8.
